US12389906B2, “Aqueous herbicidal concentrates” (Monsanto Technology LLC, priority 2014, dated 2025)

Legend:
[1] = test system: AMATG; test: Field trial 1 weed control, AMATG; format: in vivo, Glyphosate-resistant (GR) AMATA; conditions: 0.25 lb/acre, pre-emergence to weeds, 4 WAT
Text: (§1) Four replications were completed per treatment.

[2] = test system: CHEAL (common lambsquarters); test: Field trial 1 weed control, CHEAL; format: in vivo; conditions: 0.25 lb/acre, pre-emergence to weeds, 4 WAT
Text: as §1

[3] = test system: SORSS (Sorghum sps.); test: Field trial 1 weed control, SORSS; format: in vivo; conditions: 0.25 lb/acre, pre-emergence to weeds, 4 WAT
Text: as §1

[4] = test system: AMAPA; test: Field trial 1 weed control, AMAPA; format: in vivo, palmer amaranth; conditions: 0.25 lb/acre, pre-emergence to weeds, 4 WAT
Text: as §1

[5] = test system: EPHSS (Euphorbia sps.); test: Field trial 1 weed control, EPHSS; format: in vivo; conditions: 0.25 lb/acre, pre-emergence to weeds, 4 WAT
Text: as §1

[6] = test system: narrowleaf weed species; test: Field Trial 2 results summary, narrowleaf control; format: in vivo; conditions: 0.25 lb a.i./acre (0.28 kg/hectare), 4 WAT
Text: as §1

[7] = test system: SEBEX; test: Field trial 1 weed control, SEBEX; conditions: 0.25 lb/acre, pre-emergence to weeds, 4 WAT
Description: A series of field trials were conducted at a variety of locations. The soil texture at these sites ranged from silty loam, silty clay loam, to sandy silt loam and sandy loam. The objective of the experiment was to evaluate the weed efficacy and length of residual efficacy of the each standalone herbicide compared to the herbicide combinations. The experiments were conducted in a randomized complete block design. Four replications were completed per treatment. Time of application was pre-emergence to weeds, and treatments were applied using a back-pack or tractor mounted sprayer.
Weed control was determined as a percentage as compared to untreated plants following a standard procedure where visual assessment of plant mortality and growth reduction is made by one specially trained to make such assessments. Across the field trials, the results for 16 broadleaf and 7 narrowleaf weed species were recorded. […] Mean percent control and standard error are calculated by the least squares method.

[8] = test system: narrowleaf weed species; test: Field Trial 1 results summary, narrowleaf control; format: in vivo; conditions: 0.25 lb a.i./acre (0.28 kg/hectare), 4 WAT
Text: as §1

[9] = test system: ECHCF; test: Field trial 1 weed control, ECHCF; format: in vivo; conditions: 0.25 lb/acre, pre-emergence to weeds, 4 WAT
Text: as §1

[10] = test system: IPOSS (Morningglory sps.); test: Field trial 1 weed control, IPOSS; format: in vivo; conditions: 0.25 lb/acre, pre-emergence to weeds, 4 WAT
Text: as §1

[11] = test system: MOLVE (carpetweed); test: Field trial 1 weed control, MOLVE; format: in vivo; conditions: 0.25 lb/acre, pre-emergence to weeds, 4 WAT
Text: as §1

[12] = test system: broadleaf weed species; test: Field Trial 2 results summary, broadleaf control; format: in vivo; conditions: 0.25 lb a.i./acre (0.28 kg/hectare), 4 WAT
Text: as §1

[13] = test system: CASOB (sicklepod); test: Field trial 1 weed control, CASOB; format: in vivo; conditions: 0.25 lb/acre, pre-emergence to weeds, 4 WAT
Text: as §1

[14] = test system: SIDSP (prickly sida); test: Field trial 1 weed control, SIDSP; format: in vivo; conditions: 0.25 lb/acre, pre-emergence to weeds, 4 WAT
Text: as §1

[15] = test system: ACCOS (hophornbeam copperleaf); test: Field trial 1 weed control, ACCOS; format: in vivo; conditions: 0.25 lb/acre, pre-emergence to weeds, 4 WAT
Text: as §1

[16] = test system: AMBEL (common ragweed); test: Field trial 1 weed control, AMBEL; format: in vivo; conditions: 0.25 lb/acre, pre-emergence to weeds, 4 WAT
Text: as §1

[17] = test system: HIBTR (venice mallow); test: Field trial 1 weed control, HIBTR; format: in vivo; conditions: 0.25 lb/acre, pre-emergence to weeds, 4 WAT
Text: as §1

[18] = test system: IPOHE; test: Field trial 1 weed control, IPOHE; format: in vivo; conditions: 0.25 lb/acre, pre-emergence to weeds, 4 WAT
Text: as §1

[19] = test system: ECHCG (Echinochola sps.); test: Field trial 1 weed control, ECHCG; format: in vivo; conditions: 0.25 lb/acre, pre-emergence to weeds, 4 WAT
Text: as §1

[20] = test system: AMAPG; test: Field trial 1 weed control, AMAPG; format: in vivo, Glyphosate-resistant (GR) AMAPA; conditions: 0.25 lb/acre, pre-emergence to weeds, 4 WAT
Text: as §1

[21] = test system: ABUTH (velvetleaf); test: Field trial 1 weed control, ABUTH; format: in vivo; conditions: 0.25 lb/acre, pre-emergence to weeds, 4 WAT
Text: as §1

[22] = test system: SETFA (giant foxtail); test: Field trial 1 weed control, SETFA; format: in vivo; conditions: 0.25 lb/acre, pre-emergence to weeds, 4 WAT
Text: as §1

[23] = test system: DIGSS (Digitaria sps.); test: Field trial 1 weed control, DIGSS; format: in vivo; conditions: 0.25 lb/acre, pre-emergence to weeds, 4 WAT
Text: as §1

[24] = test system: broadleaf weed species; test: Field Trial 1 results summary, broadleaf control; format: in vivo; conditions: 0.25 lb a.i./acre (0.28 kg/hectare), 4 WAT
Text: as §1

[25] = test system: IPOLA; test: Field trial 1 weed control, IPOLA; format: in vivo; conditions: 0.25 lb/acre, pre-emergence to weeds, 4 WAT
Text: as §1

[26] = test system: BRASS (Signalgrass sps.); test: Field trial 1 weed control, BRASS; format: in vivo; conditions: 0.25 lb/acre, pre-emergence to weeds, 4 WAT
Text: as §1

[27] = test system: SORHA (johnsongrass); test: Field trial 1 weed control, SORHA; format: in vivo; conditions: 0.25 lb/acre, pre-emergence to weeds, 4 WAT
Text: as §1

[28] = test system: POROL (common purslane); test: Field trial 1 weed control, POROL; format: in vivo; conditions: 0.25 lb/acre, pre-emergence to weeds, 4 WAT
Text: as §1

[29] = test system: AMATA; test: Field trial 1 weed control, AMATA; format: in vivo, waterhemp; conditions: 0.25 lb/acre, pre-emergence to weeds, 4 WAT
Text: as §1

[30] = test system: PESGL (pearl millet); test: Field trial 1 weed control, PESGL; format: in vivo; conditions: 0.25 lb/acre, pre-emergence to weeds, 4 WAT
Text: as §1

[31] = test system: DIGSA; test: Field trial 1 weed control, DIGSA; format: in vivo; conditions: 0.25 lb/acre, pre-emergence to weeds, 4 WAT
Text: as §1

Structure (SMILES): CS(=O)(=O)NC(=O)c1cc(Oc2ccc(C(F)(F)F)cc2Cl)ccc1[N+](=O)[O-] [Fomesafen, fomesafen]
- % Control (mean) [1]: 57.5%
- % Control (mean) [2]: 78.3%
- % Control (mean) [3]: 99.8%
- % Control (mean) [4]: 92.5%
- % Control (mean) [5]: 100.0%
- Narrowleaf Control [6]: 66.3%
- % Control (mean) [7]: 33.8%
- Narrowleaf Control [8]: 79%
- % Control (mean) [9]: 71.9%
- % Control (mean) [10]: 63.1%
- % Control (mean) [11]: 90.6%
- Broadleaf Control [12]: 63.6%
- % Control (mean) [13]: 46.2%
- % Control (mean) [14]: 98.3%
- % Control (mean) [15]: 93.8%
- % Control (mean) [16]: 75.8%
- % Control (mean) [17]: 75.0%
- % Control (mean) [18]: 52.5%
- % Control (mean) [19]: 66.8%
- % Control (mean) [20]: 87.8%
- % Control (mean) [21]: 63.7%
- % Control (mean) [22]: 58.8%
- % Control (mean) [23]: 99.0%
- Broadleaf Control [24]: 70%
- % Control (mean) [25]: 27.5%
- % Control (mean) [26]: 99.5%
- % Control (mean) [27]: 86.8%
- % Control (mean) [28]: 66.3%
- % Control (mean) [29]: 85.8%
- % Control (mean) [30]: 100.0%
- % Control (mean) [31]: 65.3%
